How the values were obtained:
[1] = Plasma pharmacokinetics of phenolic metabolites after intake of the GCPE nutraceutical (LC-MS-QToF); conditions: for Cmax: mean ± SEM, n = 9
Protocol: Participants attended the Human Nutrition Unit (HNU) at the Institute of Food Science, Technology and Nutrition (ICTAN-CSIC) on two consecutive days at the beginning of the intervention (week 0) and also on two consecutive days at the end of the study, after consuming daily two doses of the GCPE nutraceutical, providing 600 mg/d phenols, during two months (week 8). On each occasion, on the first visit day (Figure 1), subjects arrived at the HNU after an overnight (12 h) fast and provided a urine sample. A licensed health care professional placed an intravenous catheter in the subjects′ nondominant arm and collected a fasting blood sample (baseline, 0 h). Then, subjects drank the soluble GCPE nutraceutical dissolved in 200 mL of water. Subsequently, blood samples were collected in EDTA-coated tubes at 0.5, 1, 1.5, 2, 3, 4, 6, 8, 10, and 11 h. On the sampling days, volunteers remained at the HNU, where a (poly)phenol-free diet was provided. Half an hour after consuming the nutraceutical, volunteers ate a breakfast consisting of ham, cheese, white bread, and a yogurt. Lunch (paella, bread, and yogurt) and an afternoon snack (muffin and yogurt) were eaten 5 and 9 h, respectively, after consuming the nutraceutical. Water and isotonic beverages were freely available. Volunteers were instructed to eat a (poly)phenol-free dinner that night and to attend the HNU on the next day after a 12 h fast. Then, a final blood sample was obtained from the antecubital vein 24 h after consuming the nutraceutical. The same protocol was followed during visits at the end of the 8-week intervention. On each occasion, two days before each visit to the HNU, subjects consumed a low (poly)phenol diet free of foods containing hydroxycinnamates such as coffee, herbal teas, red wine, artichokes, whole grain cereals, vegetables, fruits and fruit juices, and dried fruits. Only banana, watermelon, cantaloupes, and potatoes were allowed.
(§1) Blood samples were immediately centrifuged (10 min, 3000 rpm, 4 °C) to obtain plasma. […] All biological samples were stored at −80 °C until analysis.
To extract plasma metabolites, 10 µL of 50% (v/v) aqueous formic acid, and 900 µL cold acetonitrile containing 50 µL of 10% (w/v) ascorbic acid were added to 400 µL defrosted plasma. Samples were vortexed and centrifuged (14,000 rpm, 10 min, 4 °C), repeating the extraction and combining the two supernatants, which were reduced to dryness under nitrogen [13]. Dried samples were resuspended in 150 µL of 0.1% aqueous formic acid (containing 10% acetonitrile acidified with 0.1% formic acid), centrifuged (15 min, 14,000 rpm, 4 °C), and the supernatant collected.
A reverse-phase Ascentis Express C18 (15 cm × 3 mm, 2.7 µm) column (Sigma-Aldrich Quimica, Madrid, Spain), preceded by a Supelco 55215-U guard column (3 mm × 5 mm, 2.7 µm), was used for separation. Mobile phase A was 0.1% formic acid in Milli-Q water, and mobile phase B was acetonitrile containing 0.1% formic acid at a 0.3 mL/min flow rate. […] Metabolites were identified based on their retention time using authentic standards when possible.

[2] = Urinary excretion of phenolic metabolites after intake of the GCPE nutraceutical; conditions: for Cumulative urinary excretion, Total 0–24 h: urine, mean ± SEM, n = 9
[3] = Fecal excretion of phenolic metabolites after intake of the GCPE nutraceutical; conditions: feces, week 8
Protocol: Participants attended the Human Nutrition Unit (HNU) at the Institute of Food Science, Technology and Nutrition (ICTAN-CSIC) on two consecutive days at the beginning of the intervention (week 0) and also on two consecutive days at the end of the study, after consuming daily two doses of the GCPE nutraceutical, providing 600 mg/d phenols, during two months (week 8). […] A licensed health care professional placed an intravenous catheter in the subjects′ nondominant arm and collected a fasting blood sample (baseline, 0 h). Then, subjects drank the soluble GCPE nutraceutical dissolved in 200 mL of water. […] On the sampling days, volunteers remained at the HNU, where a (poly)phenol-free diet was provided. Half an hour after consuming the nutraceutical, volunteers ate a breakfast consisting of ham, cheese, white bread, and a yogurt. Lunch (paella, bread, and yogurt) and an afternoon snack (muffin and yogurt) were eaten 5 and 9 h, respectively, after consuming the nutraceutical. Water and isotonic beverages were freely available. […] The same protocol was followed during visits at the end of the 8-week intervention. On each occasion, two days before each visit to the HNU, subjects consumed a low (poly)phenol diet free of foods containing hydroxycinnamates such as coffee, herbal teas, red wine, artichokes, whole grain cereals, vegetables, fruits and fruit juices, and dried fruits. Only banana, watermelon, cantaloupes, and potatoes were allowed.
as §1
To extract plasma metabolites, 10 µL of 50% (v/v) aqueous formic acid, and 900 µL cold acetonitrile containing 50 µL of 10% (w/v) ascorbic acid were added to 400 µL defrosted plasma. Samples were vortexed and centrifuged (14,000 rpm, 10 min, 4 °C), repeating the extraction and combining the two supernatants, which were reduced to dryness under nitrogen [13]. Dried samples were resuspended in 150 µL of 0.1% aqueous formic acid (containing 10% acetonitrile acidified with 0.1% formic acid), centrifuged (15 min, 14,000 rpm, 4 °C), and the supernatant collected. Urine samples were diluted 1:1 with Milli-Q water and centrifuged (14,000 rpm, 20 min, 4 °C) prior to analysis. Phosphate-buffered saline (3 mL) was added to a representative 300 mg sample of thawed feces, homogenized in an ultrasound bath during 10 min, centrifuged (14,000 rpm, 20 min, 4 °C), and the supernatants collected.
Mobile phase A was 0.1% formic acid in Milli-Q water, and mobile phase B was acetonitrile containing 0.1% formic acid at a 0.3 mL/min flow rate. […] Metabolites were identified based on their retention time using authentic standards when possible. […] Urine concentration of excreted metabolites was normalized to the total volume excreted in each studied interval.
Plasma (30 µL), urine (5 µL) and fecal extracts (5 µL) were filtered through 0.45 µm
cellulose-acetate membrane filters and injected into an Agilent 1200 series LC system
ESI-Jet Stream Technology (Agilent Technologies). A reverse-phase Ascentis Express
C18 (15 cm x 3 mm, 2.7 µm) column (Sigma-Aldrich Quimica, Madrid), preceded by a
phase A was 0.1% formic acid in Milli-Q water, and mobile phase B was acetonitrile
containing 0.1% formic acid at a 0.3 mL/min flow rate. The gradient started with 10% B
at 0 min, 30% B at 10 min, 40% B at 15 min, reaching 50% B at 20 min. The starting
gradient was then re-established in 2 min and maintained for 8 min to re-equilibrate the

For `COc1cc(/C=C/C(=O)OC2[C@H](O)CC(O)(C(=O)O)C[C@H]2O)ccc1O` (stereo partly drawn) [4-Feruloylquinic acid], which “AUC0–24h” value ([1]; week 0) is on record?
The value was 0.06 ± 0.01 µM/min.

And the Cmax ([1]; week 0, GCPE nutraceutical with 300 mg hydroxycinnamic acids)?
The Cmax was 29 ± 4 nM.

What about the “Tmax (h) or Range” value ([1]; week 0, first peak where biphasic) of the same compound?
The value was 0.9 ± 0.1 h.

And the “AUC0–24h” value ([1]; week 8)?
Its value is 0.07 ± 0.01 µM/min.

And the Cmax ([1]; week 8, GCPE nutraceutical with 300 mg hydroxycinnamic acids)?
Its Cmax is 31 ± 4 nM.

What about the “Tmax (h) or Range” value ([1]; week 8, first peak where biphasic) of the same compound?
Its value is 0.9 ± 0.1 h.

And the “Cumulative urinary excretion, Total 0–24 h” value ([2]; week 0)?
The value was 0.4 ± 0.2 µmol.

And the “Cumulative urinary excretion, Total 0–24 h” value ([2]; week 8)?
The value was 0.4 ± 0.1 µmol.

What about the Amount excreted in urine, 0- 3 h ([2]; week 0, interval 0–3 h) of the same compound?
Its Amount excreted in urine, 0- 3 h is 0.2 ± 0.1 µmol.

What about the Amount excreted in urine, 3-6 h ([2]; week 0, interval 3–6 h) of the same compound?
The Amount excreted in urine, 3-6 h was 0.15 ± 0.05 µmol.

And the Amount excreted in urine, 6-9 h ([2]; week 0, interval 6–9 h)?
Its Amount excreted in urine, 6-9 h is 0.02 ± 0.01 µmol.

What about the Amount excreted in urine, 9-11 h ([2]; week 0, interval 9–11 h) of the same compound?
Its Amount excreted in urine, 9-11 h is 0.003 ± 0.002 µmol.

And the Amount excreted in urine, 0- 3 h ([2]; week 8, interval 0–3 h)?
Its Amount excreted in urine, 0- 3 h is 0.21 ± 0.08 µmol.

What about the Amount excreted in urine, 3-6 h ([2]; week 8, interval 3–6 h) of the same compound?
The Amount excreted in urine, 3-6 h was 0.13 ± 0.03 µmol.

And the Amount excreted in urine, 6-9 h ([2]; week 8, interval 6–9 h)?
Its Amount excreted in urine, 6-9 h is 0.03 ± 0.01 µmol.

And the Amount excreted in urine, 11-24 h ([2]; week 8, interval 11–24 h)?
Its Amount excreted in urine, 11-24 h is 0.02 ± 0.02 µmol.

And the “Amount of fecal metabolite excreted at 0 h” value ([3]; 0 h)?
Its value is 0.001 ± 0.001 µmol/g.

What about the “Amount of fecal metabolite excreted at 24 h” value ([3]; 24 h) of the same compound?
The value was 0.0004 ± 0.0004 µmol/g.

Reference: paper PMC9230201, “Sustained Consumption of a Decaffeinated Green Coffee Nutraceutical Has Limited Effects on Phenolic Metabolism and Bioavailability in Overweight/Obese Subjects” (Nutrients, 2022)
